# Source: publication PMC6211260 (Journal of Enzyme Inhibition and Medicinal Chemistry, 2018)
# Tests used:
# Format in all cases: cell-based
# NCI-60 cell line panel = assay: NCI-60 single-dose (10 µM) antiproliferative screening, mean over panel; conditions: single-dose 10 µM, 60-cancer cell line screening
# Description: (§1) Screening against the cancer cell lines was carried out at the National Cancer Institute (NCI, Bethesda, Maryland, USA) applying the standard protocol of the NCI[22].
# The final target compounds were submitted to the National Cancer Institute (NCI), Maryland, USA[23]. Thirty-one compounds were selected to be tested over 60 cell lines at single dose 10 µM.
# CNS cancer cell lines = assay: NCI five-dose testing, subpanel mean; conditions: subpanel IV: CNS cancer
# Description: as §1
# Leukaemia cell lines = assay: NCI five-dose testing, subpanel mean; conditions: subpanel I: Leukaemia
# Description: as §1
# breast cancer cell lines = assay: NCI five-dose testing, subpanel mean; conditions: subpanel IX: breast cancer
# Description: as §1
# colon cancer cell lines = assay: NCI five-dose testing, subpanel mean; conditions: subpanel III: colon cancer
# Description: as §1
# melanoma cell lines = assay: NCI five-dose testing, subpanel mean; conditions: subpanel V: melanoma
# Description: as §1
# [1] = test system: non-small cell lung cancer cell lines; assay: NCI five-dose testing, subpanel mean; conditions: subpanel II: non-small cell lung cancer
# Description: as §1
# [2] = test system: ovarian cancer cell lines; assay: NCI five-dose testing, subpanel mean; conditions: subpanel VI: ovarian cancer
# Description: as §1
# [3] = test system: prostate cancer cell lines; assay: NCI five-dose testing, subpanel mean; conditions: subpanel VIII: prostate cancer
# Description: as §1
# renal cancer cell lines = assay: NCI five-dose testing, subpanel mean; conditions: subpanel VII: renal cancer
# Description: as §1
# [4] = test system: A498 renal cancer cell line; assay: NCI five-dose testing; conditions: Homo sapiens; for IC50 / IC (TGI): A498; for LC50 (lethal concentration 50%): A498, read-out: LD50 (lethal dose 50); for IC (TGI): read-out: TGI (total growth inhibition concentration)
# Description: as §1
# [5] = test system: HOP-92 non-small cell lung cancer cell line; assay: NCI five-dose testing; conditions: Homo sapiens; for IC50: HOP-92; for IC (TGI): HOP-92, HOP-92, read-out: TGI (total growth inhibition concentration); for LD50 (lethal dose 50): HOP-92, read-out: LD50 (lethal dose 50)
# Description: as §1
# [6] = test system: HT-29 colon cancer cell line; assay: NCI five-dose testing; conditions: Homo sapiens; for CC50: HT-29, read-out: LD50 (lethal dose 50); for IC50 / IC (TGI): HT-29; for IC50: read-out: IC50; for IC (TGI): read-out: TGI (total growth inhibition concentration)
# Description: as §1
# [7] = test system: K-562 leukaemia cell line; assay: NCI five-dose testing; conditions: Homo sapiens; for CC50: K562, read-out: LD50 (lethal dose 50); for IC50 / IC (TGI): K562, K-562; for IC (TGI): read-out: TGI (total growth inhibition concentration)
# Description: as §1
# [8] = test system: MDA-MB-468 breast cancer cell line; assay: NCI five-dose testing; conditions: Homo sapiens; for IC50 / IC (TGI): MDA-MB-468; for CC50: MDA-MB-468, read-out: LD50 (lethal dose 50); for IC (TGI): read-out: TGI (total growth inhibition concentration)
# Description: as §1
# [9] = test system: OVCAR-4 ovarian cancer cell line; assay: NCI five-dose testing; conditions: Homo sapiens; for IC50 / IC (TGI): OVCAR-4; for LC50 (lethal concentration 50): OVCAR-4, read-out: LD50 (lethal dose 50); for IC (TGI): read-out: TGI (total growth inhibition concentration)
# Description: as §1
# [10] = test system: PC-3 prostate cancer cell line; assay: NCI five-dose testing; conditions: Homo sapiens; for LC50 (lethal concentration 50): PC-3, read-out: LD50 (lethal dose 50); for IC50 / IC (TGI): PC-3; for IC50: read-out: IC50; for IC (TGI): read-out: TGI (total growth inhibition concentration)
# Description: as §1
# [11] = test system: SK-MEL-5 melanoma cell line; assay: NCI five-dose testing; conditions: Homo sapiens; for IC50 / IC (TGI): SK-MEL-5; for LC50 (lethal concentration 50): SK-MEL-5, read-out: LD50 (lethal dose 50); for IC (TGI): read-out: TGI (total growth inhibition concentration)
# Description: as §1
# [12] = test system: U251 CNS cancer cell line; assay: NCI five-dose testing; conditions: Homo sapiens; for CC50: U-251, read-out: LD50 (lethal dose 50); for IC50 / IC (TGI): U-251, U251; for IC50: read-out: IC50; for IC (TGI): read-out: TGI (total growth inhibition concentration)
# Description: as §1
SMILES,IC50 (CNS cancer cell lines) [µM],IC50 (Leukaemia cell lines) [µM],IC50 (breast cancer cell lines) [µM],IC50 (colon cancer cell lines) [µM],IC50 (melanoma cell lines) [µM],IC50 [1] [µM],IC50 [2] [µM],IC50 [3] [µM],IC50 (renal cancer cell lines) [µM],IC50 [4] [µM],LC50 (lethal concentration 50%) [4] [µM],IC (TGI) [4] [µM],IC50 [5] [µM],IC (TGI) [5] [µM],LD50 (lethal dose 50) [5] [µM],CC50 [6] [µM],IC50 [6] [µM],IC (TGI) [6] [µM],CC50 [7] [µM],IC50 [7] [µM],other results
"COc1cccc(-c2nn(-c3ccccc3)cc2-c2ccnc(NCCNS(=O)(=O)c3ccc(C(F)(F)F)cc3)c2)c1 [Compound 1g, N-(2-((4-(3-(3-Methoxyphenyl)-1-phenyl-1H-pyrazol-4-yl)pyridin-2-yl)amino)ethyl)-4-(trifluoromethyl)benzenesulfonamide]",5.28,3.35,4.05,4.91,4.94,6.36,6.1,13,5.32,3.4,> 100,6.5,2.12,6.8,> 100,37.7,2.32,5.7,> 100,2.87,inhibition at 10 µM (NCI-60 cell line panel): 92.8%; IC (TGI) [7]: 19 µM; IC50 [8]: 3.31 µM; CC50 [8]: > 100 µM; IC (TGI) [8]: > 100 µM; IC50 [9]: 2.94 µM; LC50 (lethal concentration 50) [9]: > 100 µM; IC (TGI) [9]: > 100 µM; LC50 (lethal concentration 50) [10]: > 100 µM; IC50 [10]: 2.86 µM; IC (TGI) [10]: 26.7 µM; IC50 [11]: 1.72 µM; LC50 (lethal concentration 50) [11]: 5.6 µM; IC (TGI) [11]: 3.1 µM; CC50 [12]: 63.4 µM; IC50 [12]: 3.54 µM; IC (TGI) [12]: 13.9 µM
"COc1cccc(-c2nn(-c3ccccc3)cc2-c2ccnc(NCCCNS(=O)(=O)c3cccc(F)c3)c2)c1 [Compound 2h, 3-Fluoro-N-(3-((4-(3-(3-methoxyphenyl)-1-phenyl-1H-pyrazol-4-yl)pyridin-2-yl)amino)propyl)benzenesulfonamide]",4.49,3.18,3.49,4.69,4.14,5.01,3.88,4.65,4.25,3.52,> 100,> 100,2.42,> 100,> 100,> 100,2.87,18.8,> 100,3.31,inhibition at 10 µM (NCI-60 cell line panel): 76.8%; IC (TGI) [7]: > 100 µM; IC50 [8]: 3.49 µM; CC50 [8]: > 100 µM; IC (TGI) [8]: 30.4 µM; IC50 [9]: 3.28 µM; LC50 (lethal concentration 50) [9]: > 100 µM; IC (TGI) [9]: > 100 µM; LC50 (lethal concentration 50) [10]: > 100 µM; IC50 [10]: 2.97 µM; IC (TGI) [10]: > 100 µM; IC50 [11]: 1.86 µM; LC50 (lethal concentration 50) [11]: 7.6 µM; IC (TGI) [11]: 3.7 µM; CC50 [12]: > 100 µM; IC50 [12]: 4.83 µM; IC (TGI) [12]: > 100 µM
"O=S(=O)(NCCCNc1cc(-c2cn(-c3ccccc3)nc2-c2cccc(O)c2)ccn1)c1ccc(F)cc1 [Compound 2m, 4-Fluoro-N-(3-((4-(3-(3-hydroxyphenyl)-1-phenyl-1H-pyrazol-4-yl)pyridin-2-yl)amino)propyl)benzenesulfonamide]",3.28,2.25,2.69,2.68,2.89,3.91,3.79,3.62,3.81,3.52,52.3,9.8,2.66,7.6,84.2,47.8,2.26,6.4,> 100,2.4,IC (TGI) [7]: 6.3 µM; IC50 [8]: 2.55 µM; CC50 [8]: > 100 µM; IC (TGI) [8]: 6.7 µM; IC50 [9]: 3.82 µM; LC50 (lethal concentration 50) [9]: > 100 µM; IC (TGI) [9]: 4.8 µM; LC50 (lethal concentration 50) [10]: 80.7 µM; IC50 [10]: 3.11 µM; IC (TGI) [10]: 8.5 µM; IC50 [11]: 3.06 µM; LC50 (lethal concentration 50) [11]: 33 µM; IC (TGI) [11]: 10.1 µM; CC50 [12]: 69.5 µM; IC50 [12]: 2.97 µM; IC (TGI) [12]: 10.3 µM
